For one test, the target named is guinea pig ileal longitudinal smooth muscle. Put plainly: Calcium channel antagonist testing: inhibition of muscarinic receptor-mediated Ca2+-dependent contraction (response to CD) of guinea pig ileal longitudinal smooth muscle. Particulars: 50% inhibition of tonic contraction to CD 5×10^-7 M; compound added 10 min before CD; 37° C., pH 7.4; read-out: Calcium channel antagonist act., inhib. act. on contractile response to CD, ID50. Type of test: cell-based. How it is done:
Male albino guinea pigs (body weight 300-450 g) were sacrificed by decapitation. The intestine was removed above the ileo-caecal junction. Longitudinal smooth muscle segments of 2 cm length were mounted under a resting tension of 300-400 mg. […] The muscles were equilibrated for 1 h with a solution change every 15 min. Two successive control contractions were elicited at 15 min intervals with 5×10^-7 M cis-2-methyl- 4-dimethylaminomethyl-1,3-dioxolane methiodide (CD). The isometric contractions were recorded with a force displacement transducer (FT 03C) on a GRASS physiograph. The means of the two contractile responses was taken as the 100% value for the tonic (slow) component of the response. The muscle was washed with Hepes saline solution and was allowed to re-equilibrate. The calcium antagonist (test compound) was added ten min before the dose-response for CD was determined. The drug-induced inhibition of contraction was expressed as percent of control. The ID50 values were graphically determined from the concentration-response curves.
“Diethyl 2,6-dimethyl-4-{3'-[N--methoxycarbonyl-1',2'-(1',6'-)dihydropyridyl]}-1,4-dihydropyridine-3,5-dicarboxylate [Compound D-33]”: the IC50 is 0.18 µM.
Same read-out and setting: the figure for “Diethyl 2,6-dimethyl-4-{3'-[N--phenoxycarbonyl-1',2'-(1',6'-)dihydropyridyl]}-1,4-dihydropyridine-3,5-dicarboxylate [Compound D-37]” is 0.865 µM; for “Diethyl 2,6-dimethyl-4-{3'-[N--t-butoxycarbonyl-1',2'-(1',6'-)dihydropyridyl]}-1,4-dihydropyridine-3,5-dicarboxylate [Compound D-40]” it is 0.672 µM.
The same measure, in the same setting: next, “Diisobutyl 2,6-dimethyl-4-{3'-[N--methoxycarbonyl-1',2'(1',6'-)dihydropyridyl]}-1,4-dihydropyridine-3,5-dicarboxylate [Compound D-35]”: 0.771 µM; “Diisobutyl 2,6-dimethyl-4-{3'-[N--phenoxycarbonyl-1',2'-(1',6'-)dihydropyridyl]}-1,4-dihydropyridine-3,5-dicarboxylate [Compound D-39]”: 6.46 µM.
As for “Diisobutyl 2,6-dimethyl-4-{3'-[N--t-butoxycarbonyl-1',2'-(1',6'-)dihydropyridyl]}-1,4-dihydropyridine-3,5-dicarboxylate [Compound D-42]”, the IC50 is 3.42 µM.
Regarding “Diisopropyl 2,6-dimethyl-4-{3'-[N-- phenoxycarbonyl-1',2'-(1',6'-)dihydropyridyl]}-1,4-dihydropyridine-3,5-dicarboxylate [Compound D-38]”, the IC50 amounted to 1.67 µM.
As for “Diisopropyl 2,6-dimethyl-4-{3'-[N--methoxycarbonyl-1',2'-(1',6'-)dihydropyridyl]}-1,4-dihydropyridine-3,5-dicarboxylate [Compound D-34]”, the IC50 is 0.131 µM.
Consider “Dimethyl 2,6-dimethyl-4-{3'-[N--phenoxycarbonyl-1',2'-(1',6'-)dihydropyridyl]}-1,4-dihydropyridine-3,5-dicarboxylate [Compound D-36]”, for which the IC50 was 3.7 µM.

The test is the same for the next values; noted with them: Cavia porcellus; 50% inhibition of tonic contraction to CD 5×10^-7 M; compound added 10 min before CD; 37° C., pH 7.4; read-out: Calcium channel antagonist act., inhib. act. on contractile response to CD, ID50.
As for `CC1=C(C#N)C(c2ccncc2)C(C#N)=C(C)N1` [Compound D-28, 3,5-dicyano-2,6-dimethyl-4-(4'-pyridyl)-1,4-dihydropyridine], the IC50 amounted to 130 µM.
The same measure, in the same setting: the figure for `CC1=C(C(=O)OCC(C)C)C(C2=CCN(C(=O)Oc3ccccc3)C=C2)C(C(=O)OCC(C)C)=C(C)N1` [Compound D-56, Diisobutyl 2,6-dimethyl-4-[4'-(N--phenoxycarbonyl)]-1,4-di-hydropyridine-3,5-dicarboxylate] is 0.51 µM; for `COC(=O)N1C=CC(C2C(C#N)=C(C)NC(C)=C2C#N)=CC1` [Compound D-59, 3,5-Dicyano-2,6-dimethyl-4-[4'-(N--methoxycarbonyl)]-1,4-dihydropyridine] it is 67.5 µM; for `COC(=O)C1=C(C)NC(C)=C(C(=O)OCC(C)C)C1C1=CCN(C(=O)OC)C=C1` [Compound D-60, 3-Isobutyl-5-methyl 2,6-dimethyl-4-[4'-(N--methoxycarbonyl)]-1,4-dihydropyridine-3,5-dicarboxylate] it is 1.76 µM.
In the case of `COC(=O)C1=C(C)NC(C)=C(C(=O)OCC(C)C)C1C1=CCN(C(=O)Oc2ccccc2)C=C1` [Compound D-61, 3-Isobutyl-5-methyl 2,6-dimethyl-4-[4'-(N--phenoxycarbonyl)]-1,4-dihydropyridine-3,5-dicarboxylate], the IC50 is 81 µM.
Still for that read-out and setting: next, `COC(=O)C1=C(C)NC(C)=C(C(=O)OC)C1C1CC=CCN1C` [Compound D-64]: 64.7 µM.
Still for that read-out and setting: next, `CCOC(=O)C1=C(C)NC(C)=C(C(=O)OCC)C1C1CC=CCN1C` [Compound D-65, Diethyl 2,6-dimethyl-4-[2'-(N--methyl-1',2',3',6'-tetrahydropyridyl)]-1,4-dihydropyridine-3,5-dicarboxylate]: 13 µM; `COC(=O)C1=C(C)NC(C)=C(C(=O)OC)C1C1=CCN(C)CC1` [Compound D-66, Dimethyl 2,6-dimethyl-4-[4'-(N--methyl-1',2',3',6'-tetrahydropyridyl)]-1,4-dihydropyridine-3,5-dicarboxylate]: 181 µM.
Still for that read-out and setting: next, `CCOC(=O)C1=C(C)NC(C)=C(C(=O)OCC)C1C1=CCN(C)CC1` [Compound D-67, Diethyl 2,6-dimethyl-4-[4'-(N--methyl-1',2',3',6'-tetrahydropyridyl)]-1,4-dihydropyridine-3,5-dicarboxylate]: 4.96 µM; `COC(=O)C1=C(C)NC(C)=C(C(=O)OC)C1C1=CCCN(C)C1` [Compound D-68, Dimethyl 2,6-dimethyl-4-[5'-(N--methyl-1',2',3',6'-tetrahydropyridyl)]-1,4-dihydropyridine-3,5-dicarboxylate]: 3.43 µM; `CCOC(=O)C1=C(C)NC(C)=C(C(=O)OCC)C1C1=CCCN(C)C1` [Compound D-69, Diethyl 2,6-dimethyl-4-[5'-(N--methyl-1',2',3',6'-tetrahydropyridyl)]-1,4-dihydropyridine-3,5-dicarboxylate]: 1.1 µM.
In the case of `COC(=O)C1=C(C)N(C)C(C)C(C(=O)OC)=C1c1ccccc1` (stereo not drawn) [Compound S-1, Dimethyl 1,2,6-trimethyl-4-phenyl-1,2-dihydropyridine-3,5-dicarboxylate], the IC50 is 2.15 µM.
Same read-out and setting: next, `COC(=O)C1=C(C)N(C)C(C)C(C(=O)OC)=C1c1cccc(C(F)(F)F)c1` (stereo not drawn) [Compound S-2, Dimethyl 1,2,6-trimethyl-4-(3-trifluoromethylphenyl)-1,2-dihydropyridine-3,5-dicarboxylate]: 3.5 µM.
With `COC(=O)C1=C(C)N(C)C(C)C(C(=O)OC)=C1c1ccccc1C(F)(F)F` (stereo not drawn) [Compound S-3, Dimethyl 1,2,6-trimethyl-4-(2-trifluoromethylphenyl)-1,2-dihydropyridine-3,5-dicarboxylate], the IC50 amounted to 12 µM.
Same read-out and setting: next, `COC(=O)C1=C(C)N(C)C(C)C(C(=O)OC)=C1c1ccc([N+](=O)[O-])cc1` (stereo not drawn) [Compound S-4, Dimethyl 1,2,6-trimethyl-4-(4-nitrophenyl)-1,2-dihydropyridine-3,5-dicarboxylate]: 23.5 µM; `COC(=O)C1=C(C)N(C)C(C)C(C(=O)OC)=C1c1cccc([N+](=O)[O-])c1` (stereo not drawn) [Compound S-5, Dimethyl 1,2,6-trimethyl-4-(3-nitrophenyl)-1,2-dihydropyridine-3,5-dicarboxylate]: 7.9 µM; `COC(=O)C1=C(C)N(C)C(C)C(C(=O)OC)=C1c1ccccc1[N+](=O)[O-]` (stereo not drawn) [Compound S-6, Dimethyl 1,2,6-trimethyl-4-(2-nitrophenyl)-1,2-dihydropyridine-3,5-dicarboxylate]: 2.52 µM.
For `COC(=O)C1=C(C)N(C)C(C)C(C(=O)OC)=C1c1ccc(C(F)(F)F)cc1` (stereo not drawn) [Compound W-1, Dimethyl 1,2,6-trimethyl-4-(4-trifluoromethylphenyl)-1,2-dihydropyridine-3,5-dicarboxylate], the IC50 is 8.92 µM.
On the same count and under the same terms, the figure for `COC(=O)C1=C(c2ccccc2[N+](=O)[O-])C(C(=O)OC(C)C)=C(C)N(C)C1C` (stereo not drawn) [Compound W-2, 3-Methyl-5-isopropyl 1,2,6-trimethyl-4-(2-nitrophenyl)-1,2-dihydropyridine-3,5-dicarboxylate] is 20 µM.
Regarding `COC(=O)C1=C(C)N(C)C(C)C(C(=O)OC(C)C)=C1c1ccccc1[N+](=O)[O-]` (stereo not drawn) [Compound W-3, 3-Isopropyl-5-methyl 1,2,6-trimethyl-4-(2-nitrophenyl)-1,2-dihydropyridine-3,5-dicarboxylate], the IC50 was 10.5 µM.
On the same count and under the same terms, next, `CC1=C(C(=O)OC(C)C)C(c2ccccc2[N+](=O)[O-])=C(C(=O)OC(C)C)C(C)N1C` (stereo not drawn) [Compound W-4, Diisopropyl 1,2,6-trimethyl-4-(2-nitrophenyl)-1,2-dihydropyridine-3,5-dicarboxylate]: 5.73 µM.

The test is the same for the next values; noted with them: conclusion from Table 7.
In the case of `CC1=C(C(=O)OCC(C)C)C(C2=CCN(C(=O)Oc3ccccc3)C=C2)C(C(=O)OCC(C)C)=C(C)N1` [Compound D-56, Diisobutyl 2,6-dimethyl-4-[4'-(N--phenoxycarbonyl)]-1,4-di-hydropyridine-3,5-dicarboxylate], the “calcium channel antagonist activity, comparison to Nifedipine (TM)” value is recorded as “active calcium channel antagonists, being comparable to Nifedipine (TM)”.
Still for that read-out and setting: the entry for “Diethyl 2,6-dimethyl-4-{3'-[N--methoxycarbonyl-1',2'-(1',6'-)dihydropyridyl]}-1,4-dihydropyridine-3,5-dicarboxylate [Compound D-33]” is “active calcium channel antagonists, being comparable to Nifedipine (TM)”.
Turning to “Diethyl 2,6-dimethyl-4-{3'-[N--phenoxycarbonyl-1',2'-(1',6'-)dihydropyridyl]}-1,4-dihydropyridine-3,5-dicarboxylate [Compound D-37]”, the “calcium channel antagonist activity, comparison to Nifedipine (TM)” value was “active calcium channel antagonists, being comparable to Nifedipine (TM)”.
The same measure, in the same setting: next, “Diethyl 2,6-dimethyl-4-{3'-[N--t-butoxycarbonyl-1',2'-(1',6'-)dihydropyridyl]}-1,4-dihydropyridine-3,5-dicarboxylate [Compound D-40]”: “active calcium channel antagonists, being comparable to Nifedipine (TM)”; “Diisobutyl 2,6-dimethyl-4-{3'-[N--methoxycarbonyl-1',2'(1',6'-)dihydropyridyl]}-1,4-dihydropyridine-3,5-dicarboxylate [Compound D-35]”: “active calcium channel antagonists, being comparable to Nifedipine (TM)”.
The same measure, in the same setting: the entry for “Diisopropyl 2,6-dimethyl-4-{3'-[N--methoxycarbonyl-1',2'-(1',6'-)dihydropyridyl]}-1,4-dihydropyridine-3,5-dicarboxylate [Compound D-34]” is “active calcium channel antagonists, being comparable to Nifedipine (TM)”.
